Experimental data: patent US20260035356A1, “MODULATORS OF TYK2 PROTEOLYSIS AND ASSOCIATED METHODS OF USE” (Arvinas Operations, Inc., priority 2022, published 2026)
Entries after “also recorded” stand apart in the source; their conditions may differ.

Each molecule was assayed against T1, TYK2 (Homo sapiens, UniProt P29597) (assay: TYK2 degradation in MOLT-4 cells (Western blot, TYK2 level relative to DMSO-treated cells)). Details: 24 hour treatment, PROTAC 1 plus pomalidomide (competing for CRBN binding).
T1 construct: MOLT-4 cells (ATCC CRL-1582) were acquired from ATCC and maintained in RPMI-1640 medium; host or cells: MOLT-4 cells
Assay type: cell-based
Procedure: With reference to FIGS. 2A-2B. MOLT-4 cells (ATCC CRL-1582) were acquired from ATCC and maintained in RPMI-1640 medium supplemented with 10% fetal bovine serum (ATCC 30-2020), the combination henceforth referred to as “media”. Cells were maintained according to ATCC, (see product sheet), including incubation at 37° C. with 5% C02 in air other than during brief manipulations in a cell culture hood or during centrifugation.
18-24 hours before compound treatment, cells growing for 2-3 days in a flask were centrifuged at 200×g for 8 min, the media was aspirated, and fresh media was used to resuspend the cells. Cells were then counted, diluted with fresh media, and seeded at 650,000-750,000 cells/ml in 6-well plates, with 2 ml of volume per well.
Compounds to be tested were solubilized and stored in dimethyl sulfoxide (DMSO) at 10 mM. Compounds were first diluted in DMSO and then media so that the DMSO concentration was identical across treatments and the final concentration of DMSO was below 0.1% (typically 0.04%). Cells in each well of a 6-well plate were treated by adding 0.5 ml of fresh media containing varying concentrations of compounds to be tested—or only DMSO as a “no treatment” control.
Cells were harvested 24 hours after treatment by collecting all volume from each well into labeled microfuge tubes followed by centrifugation at 200×g for 8 min. Cells were washed in 1 ml of phosphate buffered saline (DPBS; Gibco 141190144) and then 0.5 ml of DPBS by centrifugation (as above) and aspiration. Cell pellets were resuspended by pipetting up-and-down in 100 microliters of ice cold RIPA buffer (Thermo, 89900) supplemented with 1× protease inhibitor cocktail and 1×EDTA (Pierce, 87786) and 1× phosphatase inhibitor cocktail (Pierce, 78420). Cell extracts were incubated on ice for 10 min and then centrifuged at 21,130×g for 20 min in a microfuge. Supernatants were collected and protein concentration for each sample was determined using a BCA kit (Thermo, 23225). Each sample was then denatured by adding 4×LDS buffer (Invitrogen, NP0008) to 1× followed by heating at 95° C. for 5 minutes.
Proteins were separated by electrophoresis using a XCell4 Surelock Midi-Cell apparatus (Invitrogen) and then transferred to PVDF membranes within iBlot 2 Transfer Stacks (Invitrogen, IB24001) using an iBlot 2 system (Invitrogen). Membranes were cut horizontally at a 50 kDa molecular weight marker and each piece of membrane was blocked in TBS-T+5% non-fat dry milk (NFDM) for 1-24 hours. Membranes were then incubated with antibody to TYK2 (Cell Signaling Technologies, 14193) or GAPDH (Cell Signaling Technologies, 5174; as loading control) in TBS-T+1% NFDM for 1 hour. Membranes were washed four times in TBS-T for 10 min each time, and then incubated with a HRP-conjugated secondary antibody (Cell Signaling Technologies, 7074) in TBS-T+1% NFDM for one hour. Membranes were washed four times for 10 min in TBS-T. Membranes were then incubated with reagents according to the SuperSignal West Femto Kit (Thermo, 34095) for 1 min at room temperature. Membranes were then imaged using a Gel Doc XR+ system (BioRad).
Captured images were processed using Image Lab software (BioRad). Using the volume tool, band intensities within rectangles of equal area were determined with the local subtraction method. The effects of compounds on TYK2 levels were related to the level of TYK2 from cells treated with only DMSO (no compound).

T1 sequence (P29597 whole entry): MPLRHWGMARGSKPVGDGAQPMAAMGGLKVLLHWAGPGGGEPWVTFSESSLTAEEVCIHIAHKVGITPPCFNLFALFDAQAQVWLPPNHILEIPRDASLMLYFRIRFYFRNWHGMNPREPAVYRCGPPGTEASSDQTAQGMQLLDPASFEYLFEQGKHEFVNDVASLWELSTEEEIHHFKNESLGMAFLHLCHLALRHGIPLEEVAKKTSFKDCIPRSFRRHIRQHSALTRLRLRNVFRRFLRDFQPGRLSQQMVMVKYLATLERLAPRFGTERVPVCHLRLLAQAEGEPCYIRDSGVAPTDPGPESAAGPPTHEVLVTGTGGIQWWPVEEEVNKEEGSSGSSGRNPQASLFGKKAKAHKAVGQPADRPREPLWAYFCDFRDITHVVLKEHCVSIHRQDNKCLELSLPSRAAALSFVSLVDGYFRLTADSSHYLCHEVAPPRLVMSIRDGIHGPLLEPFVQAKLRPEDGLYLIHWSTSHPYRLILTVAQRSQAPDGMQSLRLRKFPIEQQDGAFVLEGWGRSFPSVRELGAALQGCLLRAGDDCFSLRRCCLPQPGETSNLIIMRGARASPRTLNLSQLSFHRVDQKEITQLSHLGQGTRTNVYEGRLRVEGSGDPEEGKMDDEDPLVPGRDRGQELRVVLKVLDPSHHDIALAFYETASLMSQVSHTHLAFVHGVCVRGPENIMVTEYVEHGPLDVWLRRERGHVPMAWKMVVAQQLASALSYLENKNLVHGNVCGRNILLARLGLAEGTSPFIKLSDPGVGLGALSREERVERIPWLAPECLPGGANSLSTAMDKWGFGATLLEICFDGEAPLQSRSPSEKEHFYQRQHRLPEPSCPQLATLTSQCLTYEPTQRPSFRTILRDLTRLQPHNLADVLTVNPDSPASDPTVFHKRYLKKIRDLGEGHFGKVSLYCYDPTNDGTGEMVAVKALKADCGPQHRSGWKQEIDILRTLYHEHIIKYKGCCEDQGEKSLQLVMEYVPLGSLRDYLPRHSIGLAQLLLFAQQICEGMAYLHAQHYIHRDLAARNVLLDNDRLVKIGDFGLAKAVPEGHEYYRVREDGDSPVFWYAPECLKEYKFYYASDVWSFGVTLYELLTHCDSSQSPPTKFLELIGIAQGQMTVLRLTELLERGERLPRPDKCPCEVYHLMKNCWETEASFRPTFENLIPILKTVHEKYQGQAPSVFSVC

SMILES | amount of TYK2 protein, normalized to GADPH, under competition with pomalidomide (FIG. 2B)
CNC(=O)c1nnc(NC(=O)CCN2CCC(C3CN(c4ccc5c(c4)C(=O)N(C4CCC(=O)NC4=O)C5=O)C3)CC2)cc1Nc1cccc(-c2ncn(C)n2)c1OC (stereo not shown) [PROTAC 1, 6-(3-(4-(1-(2-(2,6-Dioxopiperidin-3-yl)-1,3-dioxoisoindolin-5-yl)azetidin-3-yl)piperidin-1-yl)propanamido)-4-((2-methoxy-3-(1-methyl-1H-1,2,4-triazol-3-yl)phenyl)amino)-N-methylpyridazine-3-carboxamide] | reversal of the PROTAC effect; also recorded: significantly reduces extent of degradation

Same assay, conditions: 24 hour treatment, compound alone; PROTAC 1 at 100 nM

SMILES | amount of TYK2 protein, normalized to the amount of GADPH protein, detected in cell lysates (FIG. 2B)
CNC(=O)c1nnc(NC(=O)CCN2CCC(C3CN(c4ccc5c(c4)C(=O)N(C4CCC(=O)NC4=O)C5=O)C3)CC2)cc1Nc1cccc(-c2ncn(C)n2)c1OC (stereo not shown) [PROTAC 1, 6-(3-(4-(1-(2-(2,6-Dioxopiperidin-3-yl)-1,3-dioxoisoindolin-5-yl)azetidin-3-yl)piperidin-1-yl)propanamido)-4-((2-methoxy-3-(1-methyl-1H-1,2,4-triazol-3-yl)phenyl)amino)-N-methylpyridazine-3-carboxamide] | effective at 100 nM in reducing the amount of TYK2 protein; also recorded: shows degradation
Nc1cccc2c1C(=O)N(C1CCC(=O)NC1=O)C2=O (stereo not shown) [pomalidomide, reference compound] | does not significantly reduce the amount of TYK2 protein

Same assay, conditions: MOLT-4 cells, 24 hours after treatment, TYK2 level related to DMSO-only cells

SMILES | Tyk2 Degradation Score
CNC(=O)c1nnc(NC(=O)CCN2CCC(C3CN(c4ccc5c(c4)C(=O)N(C4CCC(=O)NC4=O)C5=O)C3)CC2)cc1Nc1cccc(-c2ncn(C)n2)c1OC (stereo not shown) [PROTAC 1, 6-(3-(4-(1-(2-(2,6-Dioxopiperidin-3-yl)-1,3-dioxoisoindolin-5-yl)azetidin-3-yl)piperidin-1-yl)propanamido)-4-((2-methoxy-3-(1-methyl-1H-1,2,4-triazol-3-yl)phenyl)amino)-N-methylpyridazine-3-carboxamide] | + (25-50% degradation)
CNC(=O)c1nnc(NC(=O)CCN2CCN(c3ccc4c(c3)C(=O)N(C3CCC(=O)NC3=O)C4=O)CC2)cc1Nc1cccc(-c2ncn(C)n2)c1OC (stereo not shown) [PROTAC 2, 6-(3-(4-(2-(2,6-Dioxopiperidin-3-yl)-1,3-dioxoisoindolin-5-yl)piperazin-1-yl)propanamido)-4-((2-methoxy-3-(1-methyl-1H-1,2,4-triazol-3-yl)phenyl)amino)-N-methylpyridazine-3-carboxamide] | — (< 25% degradation)
CNC(=O)c1nnc(NC(=O)CCN2CCC(CC3CN(c4ccc5c(c4)C(=O)N(C4CCC(=O)NC4=O)C5=O)C3)CC2)cc1Nc1cccc(-c2ncn(C)n2)c1OC (stereo not shown) [PROTAC 3, 6-(3-(4-((1-(2-(2,6-Dioxopiperidin-3-yl)-1,3-dioxoisoindolin-5-yl)azetidin-3-yl)methyl)piperidin-1-yl)propanamido)-4-((2-methoxy-3-(1-methyl-1H-1,2,4-triazol-3-yl)phenyl)amino)-N-methylpyridazine-3-carboxamide] | ++ (51-75% degradation)
CNC(=O)c1nnc(NC(=O)CCN2CCN(c3cc(N4CCN(c5ccc6c(c5)C(=O)N(C5CCC(=O)NC5=O)C6=O)CC4)ncn3)CC2)cc1Nc1cccc(-c2ncn(C)n2)c1OC (stereo not shown) [PROTAC 4, 6-(3-(4-(6-(4-(2-(2,6-Dioxopiperidin-3-yl)-1,3-dioxoisoindolin-5-yl)piperazin-1-yl)pyrimidin-4-yl)piperazin-1-yl)propanamido)-4-((2-methoxy-3-(1-methyl-1H-1,2,4-triazol-3-yl)phenyl)amino)-N-methylpyridazine-3-carboxamide] | + (25-50% degradation)
CNC(=O)c1nnc(NC(=O)CCN2CCC(COCC3CCN(c4ccc5c(c4)C(=O)N(C4CCC(=O)NC4=O)C5=O)CC3)CC2)cc1Nc1cccc(-c2ncn(C)n2)c1OC (stereo not shown) [PROTAC 5, 6-(3-(4-(((1-(2-(2,6-Dioxopiperidin-3-yl)-1,3-dioxoisoindolin-5-yl)piperidin-4-yl)methoxy)methyl)piperidin-1-yl)propanamido)-4-((2-methoxy-3-(1-methyl-1H-1,2,4-triazol-3-yl)phenyl)amino)-N-methylpyridazine-3-carboxamide] | + (25-50% degradation)
CNC(=O)c1nnc(NC(=O)CCNCC2CCN(c3ccc4c(c3)C(=O)N(C3CCC(=O)NC3=O)C4=O)CC2)cc1Nc1cccc(-c2ncn(C)n2)c1OC (stereo not shown) [PROTAC 6, 6-(3-(((1-(2-(2,6-Dioxopiperidin-3-yl)-1,3-dioxoisoindolin-5-yl)piperidin-4-yl)methyl)amino)propanamido)-4-((2-methoxy-3-(1-methyl-1H-1,2,4-triazol-3-yl)phenyl)amino)-N-methylpyridazine-3-carboxamide] | ++ (51-75% degradation)
CNC(=O)c1nnc(NC(=O)CCN2CC(CN3CCN(C4CCN(c5ccc6c(c5)C(=O)N(C5CCC(=O)NC5=O)C6=O)CC4)CC3)C2)cc1Nc1cccc(-c2ncn(C)n2)c1OC (stereo not shown) [PROTAC 7, 6-(3-(3-((4-(1-(2-(2,6-Dioxopiperidin-3-yl)-1,3-dioxoisoindolin-5-yl)piperidin-4-yl)piperazin-1-yl)methyl)azetidin-1-yl)propanamido)-4-((2-methoxy-3-(1-methyl-1H-1,2,4-triazol-3-yl)phenyl)amino)-N-methylpyridazine-3-carboxamide] | +++ (>75% degradation)
CNC(=O)c1nnc(NC(=O)CCN2CCC(CCCN3CCN(c4ccc5c(c4)C(=O)N(C4CCC(=O)NC4=O)C5=O)CC3)CC2)cc1Nc1cccc(-c2ncn(C)n2)c1OC (stereo not shown) [PROTAC 8, 6-(3-(4-(3-(4-(2-(2,6-Dioxopiperidin-3-yl)-1,3-dioxoisoindolin-5-yl)piperazin-1-yl)propyl)piperidin-1-yl)propanamido)-4-((2-methoxy-3-(1-methyl-1H-1,2,4-triazol-3-yl)phenyl)amino)-N-methylpyridazine-3-carboxamide] | +++ (>75% degradation)
CNC(=O)c1nnc(NC(=O)CCN2CCC(CCC3CCN(c4ccc(Oc5ccc6c(c5)C(=O)N(C5CCC(=O)NC5=O)C6=O)cc4)CC3)CC2)cc1Nc1cccc(-c2ncn(C)n2)c1OC (stereo not shown) [PROTAC 9, 6-(3-(4-(2-(1-(4-((2-(2,6-Dioxopiperidin-3-yl)-1,3-dioxoisoindolin-5-yl)oxy)phenyl)piperidin-4-yl)ethyl)piperidin-1-yl)propanamido)-4-((2-methoxy-3-(1-methyl-1H-1,2,4-triazol-3-yl)phenyl)amino)-N-methylpyridazine-3-carboxamide] | ++ (51-75% degradation)
CNC(=O)c1nnc(NC(=O)CCN2CCC(CNc3ccc4c(c3)C(=O)N(C3CCC(=O)NC3=O)C4=O)CC2)cc1Nc1cccc(-c2ncn(C)n2)c1OC (stereo not shown) [PROTAC 10, 6-(3-(4-(((2-(2,6-Dioxopiperidin-3-yl)-1,3-dioxoisoindolin-5-yl)amino)methyl)piperidin-1-yl)propanamido)-4-((2-methoxy-3-(1-methyl-1H-1,2,4-triazol-3-yl)phenyl)amino)-N-methylpyridazine-3-carboxamide] | ++ (51-75% degradation)
